Data reported in patent US20110070232A1, “Combination Therapy with an Antitumor Alkaloid” (Pharma Mar, S.A., priority 2008, published 2011).
Where two headings read alike, the source gives them in different places.

What was measured:
[1] = tested on: UM-UC-3 human bladder carcinoma cell line; experiment: IC50 determination, MTS assay, 72 h (Example 2); type: cell-based; conditions: 72 hours of drug exposure
Method: (§1) The following agents were evaluated in combination with PM00104: gemcitabine (Gemzar®) and cisplatin. The human bladder carcinoma cell lines selected for this assay were the following: 5637 and UM-UC-3 cell lines. 5637 cell line was grown in RPMI 1640 medium supplemented with 10% FBS, 1.5 g/L sodium bicarbonate, 4.5 g/L glucose, 10 mM HEPES, 1 mM sodium pyruvate, and 2 mM L-glutamine. UM-UC-3 cell line was grown in MEM Eagle's medium supplemented with 10% FBS and 2 mM L-glutamine.
(§2) a. […] It was used the same methodology as those disclosed in Example 1.
(§3) IC50 values were calculated from an average of three to four assays for each of the test agents.

[2] = tested on: 5637 human bladder carcinoma cell line; experiment: IC50 determination, MTS assay, 72 h (Example 2); type: cell-based; conditions: 72 hours of drug exposure
Method: as §1, §2, §3

[3] = tested on: NCI-H23 (lung cancer) cell line; experiment: IC50 determination, MIT (tetrazolium) assay, 72 h (Example 18); type: cell-based, human; conditions: NCI-H23, 72 hours of drug exposure
Method: NCI-H23 cells were grown in RPMI supplemented with 10% Fetal Bovine Serum (FBS), 1% penicillin/streptomycin and 2 mM L-glutamine.
Before plating, cell cultures were trypsinized and cell number estimated using an automated flow cytometer.
Cells were harvested and seeded in 96 well microtiter plates at the appropriate cell density (5,000-10,000 cells) in 150 μL of media and incubated for 24 hours to allow the cells to attach before drug addition.
After the incubation period (72 hours), 50 μL of MIT solution was added to each microtiter well and incubated for further 8 hours at 37° C. The culture medium was then removed and 50 μl, of DMSO were added to dissolve the MIT crystals. Optical densities were read at 540 nm on spectrophotometer microplate reader.
IC50 values were calculated from an average of two to four assays for each of the test agents.

UM-UC-3 tumors = type: in vivo, mice; conditions: mg/kg/day: PM00104 0.90 IV, cisplatin 5 IP, gemcitabine 180 IP, paclitaxel 15 IP
Method: Female athymic nude mice (Harlan Sprague Dawley, Madison, Wis.) were utilized for all experiments. Animals were housed in ventilated rack caging with food and water ad libitum. The mice were acclimated for at least 5 days prior to tumor implantation with a tumor cell suspension.
The tumor model used in these studies was UM-UC-3 cell line, which was obtained from the ATCC (Manassas, Va.).
UM-UC-3 cells were grown in minimum essential medium (Eagle's) supplemented with 10% FBS, 1.5 g/L sodium bicarbonate, 0.1 mM non-essential amino acids, 1 mM sodium pyruvate, and 2 mM L-glutamine. Each animal was implanted SC on the right flank, using a trochar and 1 cc syringe, with 5×10^6 UM-UC-3 cells, from in vitro passage 17, in a 0.2 mL suspension of 50% Matrigel and 50% serum free medium, without antibiotics. Bacterial cultures were performed on aliquots of the cells prepared for implantation.
Treatments were initiated on DPI 15.
Tumor size measurements were recorded twice weekly from the treatment initiation until the termination of the study.
Mean, standard deviation and standard error of the mean were determined for tumor volume for all animal groups at all assessments. Student's t test was performed on tumor volumes at each measurement day, including at the end of the study, to determine whether there were any statistically significant differences between combination treatment groups and single monotherapy treatment groups.

| Structure (SMILES) | IC50 [1] | IC50 [2] | IC50 [3] | % Inhibition (UM-UC-3 tumors; day 15) | % T/C on day (UM-UC-3 tumors; day 15) | % Inhibition (UM-UC-3 tumors; day 20) | % T/C on day (UM-UC-3 tumors; day 20) | % Inhibition (UM-UC-3 tumors; day 22) | % T/C on day (UM-UC-3 tumors; day 22) | % Inhibition (UM-UC-3 tumors; day 26) | % T/C on day (UM-UC-3 tumors; day 26) | % Inhibition (UM-UC-3 tumors; day 29) | % T/C on day (UM-UC-3 tumors; day 29) | % Inhibition (UM-UC-3 tumors; day 34) | % T/C on day (UM-UC-3 tumors; day 34) | % Inhibition (UM-UC-3 tumors; day 40) | % T/C on day (UM-UC-3 tumors; day 40) | % Inhibition (UM-UC-3 tumors; day 43) | % T/C on day (UM-UC-3 tumors; day 43) | IC50 ([3]; Homo sapiens) |
| --- | --- | --- | --- | --- | --- | --- | --- | --- | --- | --- | --- | --- | --- | --- | --- | --- | --- | --- | --- | --- |
| N.N.[Cl][Pt][Cl] [Cisplatin, cisplatin] | 0.53 µg/mL | 2.4 µg/mL | 10 µM | −2.2% | 102.2% | 23.0% | 77.0% | 24.2% | 75.8% | 38.2% | 61.8% | 34.0% | 66.0% | 55.3% | 44.7% | 36.2% | 63.8% | 33.0% | 67.0% |  |
| CC(=O)O[C@H]1C(=O)[C@@]2(C)[C@H]([C@H](OC(=O)c3ccccc3)[C@]3(O)C[C@H](OC(=O)[C@H](O)[C@@H](NC(=O)c4ccccc4)c4ccccc4)C(C)=C1C3(C)C)[C@]1(OC(C)=O)CO[C@@H]1C[C@@H]2O [paclitaxel] |  |  |  | 1.3% | 98.7% | 46.9% | 53.1% | 54.0% | 46.0% | 61.4% |  | 64.6% |  | 60.5% |  | 47.5% | 52.5% | 41.0% | 59.0% | 0.047 µM |
